Converted amounts (≈) assume the structure as drawn. The source made the active and inactive calls.

The subject of series [1] is Staphylococcus aureus. Put plainly: Minimum inhibitory concentration against Staphylococcus aureus;. Format: functional.
Series [2] can be described thus: Half life at a pH of 9 and temperature 37 degree. Format: ADME. To be noted: pH 9.
Series [3] in a line: Inhibition of hydrolysis of nitrocefin after 5 min pre-incubation with TEM-1 beta-lactamase (class 1).
A further series concerns Serratia marcescens. Put plainly: Minimum inhibitory concentration against Serratia marcescens; 40-80 ug/mL. Format: functional.
The next series deals with Pseudomonas aeruginosa. Put plainly: Minimum inhibitory concentration against Pseudomonas aeruginosa; 40-80 ug/mL. Format: functional.
A further series relates to Enterobacter cloacae. The series is described as follows: Minimum inhibitory concentration against Enterobacter cloacae; 40-80 ug/mL. Format: functional.
For series [4], the system named is Staphylococcus aureus. Put plainly: Minimum inhibitory concentration against Staphylococcus aureus; No activity. Format: functional, organism-based.
Series [5] in a line: Time dependent inhibition of hydrolysis of nitrocefin after 5 min pre-incubation with TEM-1 beta-lactamase (class 1).
Series [6] is described as follows: Antibacterial activity expressed as binding to PBP 4 of Pseudomonas aeruginosa.
A short description of series [7]: Antibacterial activity expressed as binding to PBP 2 of Pseudomonas aeruginosa.
Series [8] is described as follows: Antibacterial activity expressed as binding to PBP 5 of Pseudomonas aeruginosa.
The nature of series [9]: Antibacterial activity expressed as binding to PBP 1b of Pseudomonas aeruginosa.
A short description of series [10]: Antibacterial activity expressed as binding to PBP 3 of Pseudomonas aeruginosa.
Series [11] is described as follows: Antibacterial activity expressed as binding to PBP 1a of Pseudomonas aeruginosa.

Broadly, the MIC is the lowest concentration that inhibits growth of the organism. One may read the half-life as the time needed for the level to fall by half in the phase considered. As usually defined, the IC50 is the concentration at which inhibition is half-maximal. Lower therefore signals greater potency in that assay. For the molecule `COC1=C[C@@H]2CC(=O)N(C2)C1C(=O)O` (stereo partly specified), the minimal inhibitory concentration (MIC) against Staphylococcus aureus [1], in the series on Serratia marcescens, with Pseudomonas aeruginosa and against Enterobacter cloacae was 80 µg/mL (≈ 406 µM) each time. Further, in series [2], the half-life is 14 min. Moreover, in series [3], the IC50 amounted to 280 µM.
As to `COC1=C(C(=O)OCc2ccc([N+](=O)[O-])cc2)N2C[C@@H](CC2=O)C1`, the MIC result in the series with Staphylococcus aureus [4] was “inactive”. This molecule gave a half-life in series [2] of 6 min. The midpoint of inhibition in [3], the IC50, lay at 54 µM.
Consider `COC1=CC2CC(=O)N(C2)C1C(=O)OCc1ccc([N+](=O)[O-])cc1` (stereo unspecified), for which the MIC result in the series with Staphylococcus aureus [4] was “inactive”. Moreover, in series [3], the IC50 was found to be 45 µM.
As for `CC[C@@H]1C(=O)N2C[C@@H]1C=C(OC)C2C(=O)OCc1ccc([N+](=O)[O-])cc1` (stereo partly specified), in the series on Staphylococcus aureus [4], the MIC entry was “inactive”. In addition, in [2], the half-life was 55 min. The same molecule had an IC50 in [5] of 420 µM.
Turning to `CC[C@@H]1C(=O)N2C[C@@H]1CC(OC)=C2C(=O)O`, the IC50 was 5 µM in [6]; 50 µM in series [7]; 50 µM in series [8]; 700 µM in series [5]; greater than 50 µM in [9]; 5 µM in series [10]. Further, the IC50 in [11] was greater than 50 µM. Besides, the MIC result in the series with Staphylococcus aureus [4] is “inactive”. For the same molecule, the half-life in series [2] worked out at 25 min. Moreover, the MIC in the series on Serratia marcescens, with Pseudomonas aeruginosa and against Enterobacter cloacae was 80 µg/mL (≈ 355 µM) throughout.
In series [2], `O=C(O)[C@H]1/C(=C/CO)O[C@@H]2CC(=O)N21` [CLAVULANIC ACID] displayed a half-life of 120 min. This molecule showed a concentration for half-maximal inhibition (IC50) in series [5] of 0.065 µM.
Consider `CC[C@@H]1C(=O)N2C[C@@H]1CC(OC)=C2C(=O)OCc1ccc([N+](=O)[O-])cc1`, for which the MIC result in the series on Staphylococcus aureus [4] is “inactive”. In [2], this molecule yielded a half-life of 42 min. In [3], this molecule yielded an IC50 greater than 1000 µM.
Take `CC(O)[C@H]1C(=O)N2C(C(=O)O)=C(SCCNC=N)C[C@H]12` (single isomer, unassigned) [IMIPENEM ANHYDROUS]: the half-maximal inhibitory concentration (IC50) is less than 0.1 µM in [6]; less than 0.6 µM in series [7]; 2.3 µM in series [8]; 0.6 µM in [9]; 0.3 µM in series [11].

(Values after ChEMBL document CHEMBL1148249, “Design and synthesis of bridged gamma-lactams as analogues of beta-lactam antibiotics” (Bioorg Med Chem Lett, 2004).)
